# How the values were obtained:
# [1] = target: AKT1 mutant with enlarged ATP binding pocket (Homo sapiens, UniProt P31749, M227G); conditions: cited from earlier work
# wild type AKT1 [2] = target: T1, wild type AKT1 (Homo sapiens, UniProt P31749); conditions: in vitro; cited from earlier work
# Target sequence in this assay (P31749 whole entry, species assumed): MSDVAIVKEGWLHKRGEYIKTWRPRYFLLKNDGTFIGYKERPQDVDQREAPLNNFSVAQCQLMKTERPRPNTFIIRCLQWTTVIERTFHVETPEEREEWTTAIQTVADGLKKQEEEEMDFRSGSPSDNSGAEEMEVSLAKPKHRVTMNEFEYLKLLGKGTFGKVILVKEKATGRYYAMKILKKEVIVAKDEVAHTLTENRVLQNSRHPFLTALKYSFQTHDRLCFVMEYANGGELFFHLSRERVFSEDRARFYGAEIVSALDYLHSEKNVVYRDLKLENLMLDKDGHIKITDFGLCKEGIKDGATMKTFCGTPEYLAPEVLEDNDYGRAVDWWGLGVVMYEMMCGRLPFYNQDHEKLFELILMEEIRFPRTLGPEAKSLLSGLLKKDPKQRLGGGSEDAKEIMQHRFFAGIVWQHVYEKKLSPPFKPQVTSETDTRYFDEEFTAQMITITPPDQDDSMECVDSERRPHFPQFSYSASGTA
# mutant AKT1 (M227G) = target: T2, mutant AKT1 (M227G) (Homo sapiens, UniProt P31749, M227G); experiment: Intracellular A*TPγS delivery and thio-phosphorylation assay, cells transfected with mutant AKT1; format: cell-based
# T2 construct: mutagenesis by GENEWIZ pcDNA3-myr-HA-AKT1 1036; host or cells: HCT116
# T2 sequence (P31749 whole entry M227G): as the sequence (P31749 whole entry, species assumed) above, with M227G counted along it
# Description: (§1) Plasmid constructs. Wild type AKT1 plasmid was purchased from Addgene (Addgene plasmid pcDNA3-myr-HA-AKT1 1036). Point mutation as in references (37) of the ATP-binding pocket gatekeeper amino acid (M227G) were introduced by GENEWIZ (New Jersey, USA), with a modified Strategene QuikChange® site-directed mutagenesis method.
# (§2) Expression plasmid transfection. The HCT116 cells were plated into […] dishes and transfected at approximately 90% confluence with the specified plasmid (wild type pcDNA3-myr-HA-AKT1 plasmid or the mutant pcDNA3-myr-HA-AKT1 plasmid) using BP-Fectin mammalian cell transfection reagent (BioPioneer, USA) in accordance with the manufacturer's instructions. One untransfected dish was used as a negative control. After 72 hours, cells were washed twice with cold PBS. Transfection efficacy was confirmed by western-blot measurement of the expression of the HA-tagged fusion proteins with the HA tag monoclonal antibody (Thermo Fisher Scientific, USA).
# (§3) Intracellular A*TPγS delivery and thio-phosphorylation assays. Control and transfected HCT116 cells were incubated with A*TPγS-loaded LCP nanoparticles for 4 hours. The cells were washed by cold PBS twice and then lysed with RIPA buffer (which contains protease and phosphatase inhibitors) for 30 minutes at 4° C. The cell lysates were treated with 2.5 mM PNBM at room temperature for 1 hour. Then, the PNBM treated cell lysates were analyzed with a western blot assay to measure protein thio-phosphorylation with the anti-thiophosphate ester rabbit monoclonal antibodies (Abcam, USA).
# Immunoprecipitation assays. The PNBM-treated cell lysates were pre-cleaned by an off-target antibody. Then the cleaned cell lysates were incubated with 10 μL anti-thiophosphate ester rabbit monoclonal antibody (Abcam, USA) at 4° C. for 12 hours. 100 μL protein G beads (Thermo Fisher Scientific, USA) were mixed under rotary agitation at 4° C. for 4 hours, washed twice by wash buffer, and the beads were collected. […]
# (§4) Western blotting assay. First, total protein concentrations of the cell lysates were determined by a BCA protein assay kit (Thermo, USA). […]
# AKT2^M-G = target: T3, AKT2^M-G (Homo sapiens, UniProt P31751, M229G); experiment: Live cell AKT substrate tagging, cells transfected with AKT2^M-G; format: cell-based; conditions: HCT116 cells, AKT^M-G expression vector (AKT1 and AKT2 stated together), A*TPγS delivery
# T3 construct: expressed in transfected cells; host or cells: HCT116
# T3 sequence (P31751 whole entry M229G): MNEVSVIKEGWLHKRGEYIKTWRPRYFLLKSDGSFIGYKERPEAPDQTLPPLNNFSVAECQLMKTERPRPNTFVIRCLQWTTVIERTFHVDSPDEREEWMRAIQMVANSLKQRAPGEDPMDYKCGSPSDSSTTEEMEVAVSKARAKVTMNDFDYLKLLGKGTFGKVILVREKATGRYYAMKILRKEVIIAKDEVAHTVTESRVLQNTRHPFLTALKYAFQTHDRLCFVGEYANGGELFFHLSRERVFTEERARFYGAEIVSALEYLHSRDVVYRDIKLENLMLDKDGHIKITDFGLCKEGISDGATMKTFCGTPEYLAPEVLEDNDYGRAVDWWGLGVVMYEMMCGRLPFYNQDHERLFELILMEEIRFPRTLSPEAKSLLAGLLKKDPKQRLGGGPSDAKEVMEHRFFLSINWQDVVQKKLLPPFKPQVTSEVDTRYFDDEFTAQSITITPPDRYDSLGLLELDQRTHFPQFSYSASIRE
# Description: as §3
# (§5) Immunoprecipitation assays. The PNBM-treated cell lysates were pre-cleaned by an off-target antibody. Then the cleaned cell lysates were incubated with 10 μL anti-thiophosphate ester rabbit monoclonal antibody (Abcam, USA) at 4° C. for 12 hours. 100 μL protein G beads (Thermo Fisher Scientific, USA) were mixed under rotary agitation at 4° C. for 4 hours, washed twice by wash buffer, and the beads were collected. Then, proteins were captured in the beads and released by elution buffer. The elution buffer was collected and stored at −80° C.
# (§6) Western blotting assay. First, total protein concentrations of the cell lysates were determined by a BCA protein assay kit (Thermo, USA). Protein extracts were separated by SDS-PAGE, then transferred onto a nitrocellulose membrane (NC membrane). […]
# wild type AKT1 [3] = target: T1, wild type AKT1; experiment: Intracellular A*TPγS delivery and thio-phosphorylation assay, cells transfected with wild type AKT1; format: cell-based; parameters: host or cells: HCT116
# Description: as §1, §2
# Target sequence in this assay (P31749 whole entry): as the sequence (P31749 whole entry, species assumed) above
# Intracellular A*TPγS delivery and thio-phosphorylation assays. […] Then, the PNBM treated cell lysates were analyzed with a western blot assay to measure protein thio-phosphorylation with the anti-thiophosphate ester rabbit monoclonal antibodies (Abcam, USA). […]
# as §4
# AKT2 = target: T4, AKT2 (Homo sapiens, UniProt P31751); experiment: Live cell AKT substrate tagging, cells transfected with WT AKT2; format: cell-based; conditions: HCT116 cells, WT-AKT expression vector (AKT1 and AKT2 stated together), A*TPγS delivery
# T4 construct: expressed in transfected cells; host or cells: HCT116
# T4 sequence (P31751 whole entry): as the sequence (P31751 whole entry M229G) above, with G229M counted along it
# Description: as §3, §5, §6
# Akt1M-G = target: T5, Akt1M-G (Homo sapiens, UniProt P31749, M227G); experiment: Preliminary fluorogenic experiment with nanoparticle loaded with TNP-A*TP and alexa-fluo-647-ATP; format: cell-based; conditions: nanoparticle with TNP-A*TP and alexa-fluo-647-ATP 10:1
# T5 construct: expressed in transfected cells
# T5 sequence (P31749 whole entry M227G): as the sequence (P31749 whole entry, species assumed) above, with M227G counted along it
# Description: The cells transfected with Akt1M-G or WT Akt1 expression vectors were treated with the nanoparticle. Alexa-fluo-647-ATP signal monitored nanoparticle delivery in all cells (FIG. 10A-D).
# Sequence of AKT1 mutant with enlarged ATP binding pocket (P31749 whole entry M227G): as the sequence (P31749 whole entry, species assumed) above, with M227G counted along it
molecule,measurement,setting,value
"O=P(O)(O)OP(=O)(O)OP(=O)(O)OC[C@H]1O[C@@H](n2cnc3c(NCc4ccccc4)ncnc32)[C@H](O)[C@@H]1O [A*TP, N^6-Benzyl-ATP]",binding to AKT1 mutant with enlarged ATP binding pocket,[1],has been shown to bind
Nc1ncnc2c1ncn2[C@@H]1O[C@H](COP(=O)(O)OP(=O)(O)OP(O)(O)=S)[C@@H](O)[C@H]1O [ATPγS],utilization by wild type AKT1 to tag substrate GSK3β,wild type AKT1 [2],can be utilized by wild type AKT1 to tag its substrate GSK3β in vitro
N^6-Benzyladenosine-5′-(3-thiotriphosphate) [A*TPγS],AKT1 auto-thiophosphorylation: HA-tag Western blot of anti-thiophosphate-ester immunoprecipitant,"mutant AKT1 (M227G); HCT116 cells, mutant AKT1 vector, A*TPγS-loaded LCP nanoparticle 4 hours, PNBM alkylation",detected
same,thiophosphorylation of AKT1 substrate IKKalpha: IKKalpha Western blot of anti-thiophosphate-ester immunoprecipitant,"mutant AKT1 (M227G); HCT116 cells, mutant AKT1 vector, A*TPγS-loaded LCP nanoparticle, PNBM alkylation",detected
same,"proteins immunoprecipitated by thiophosphate ester antibody (SDS-PAGE, silver blue coomassie stain)",mutant AKT1 (M227G); lysate of mutant-AKT1-expressing HCT116 cells treated with the nanoparticle,immunoprecipitate at high quantities a large number of proteins
same,thio-phosphorylation by Western blot with alkylated thiophosphate-tag antibody,AKT2^M-G,detected thio-phosphorylation
same,AKT1 auto-thiophosphorylation: HA-tag Western blot of anti-thiophosphate-ester immunoprecipitant,"wild type AKT1 [3]; HCT116 cells, wild type AKT1 vector, A*TPγS-loaded LCP nanoparticle 4 hours, PNBM alkylation",not detected
same,"proteins immunoprecipitated by thiophosphate ester antibody (SDS-PAGE, silver blue coomassie stain)",wild type AKT1 [3]; lysate of wild-type-AKT1-expressing HCT116 cells treated with the nanoparticle,not from that of wild-type-AKT1-expressing cells
same,thio-phosphorylation by Western blot with alkylated thiophosphate-tag antibody,AKT2,not those of WT-AKT transfected cells
TNP-N^6-Benzyl-ATP [TNP-A*TP],"TNP-A*TP fluorescence signal, subcellular localization",Akt1M-G; Akt1M-G-expressing cells,localized mainly to cell membrane
same,"TNP-A*TP fluorescence signal, specificity",Akt1M-G; cells transfected with Akt1M-G or WT Akt1 vectors,specific to Akt1M-G-expressing cells

# — patent US20230417751A1, “ANALYSIS OF PROTEIN KINASES IN LIVE CELLS” (Texas Tech University System, priority 2021, published 2023)
